Tests used:
[1] = test system: Human lung epithelial (BEAS-2B) cells; experiment: Cell culture model simulating hypothermic lung preservation and warm reperfusion; MTS cell viability and phase contrast morphology; assay type: cell-based; conditions: 42 h CIT
Description: (§1) Human lung epithelial (BEAS-2B) cells or human pulmonary microvascular endothelial cells (HPMEC) were cultured to confluence at 37° C., 5% CO2 in DMEM (Gibco; Waltham MA) with 10% of fetal bovine serum (FBS, Gibco), or in M199 medium (Thermo Scientific, Waltham MA) with 20% of FBS, respectively. After cells reached confluence, medium was replaced with different testing solutions, and cells were switched to a chamber at 4° C. with 50% O2 to simulate hypothermic lung preservation. After different periods of cold ischemic time (CIT), cells were switched back to DMEM+10% FBS or M199+20% FBS at 37° C. with 5% CO2 for 4 h to simulate reperfusion. Cell morphology was recorded with phase contrast microscopy.
(§2) CellTiter 96® AQueous One Solution Cell Proliferation Assay (MTS) was used to determine effects of different solutions on cell viabilities. Cells were seeded in 96-well plates at 15,000 cells/100 μl/well, and incubated with serum containing culture medium as described above, at 37° C./5% CO2 overnight. After switching to different preservation solutions for various periods of CIT, and followed by 3 h simulated reperfusion, and then 20 μl of CellTiter 96@ AQueousOne Solution (Promega; Madison, WI) was added to each well. After additional 1 h incubation, optical density of each well was measured using a plate reader (Biotek Instrument Inc., Winooski, VT) set to 490 nm.

[2] = test system: human pulmonary microvascular endothelial cells (HPMEC); experiment: Cell culture model simulating hypothermic lung preservation and warm reperfusion; MTS cell viability; assay type: cell-based; conditions: 42 h CIT
Description: as §1, §2

## dextran 40
[1]; 50 mg/ml added to M199(p)
  effect of addition of dextran 40 on cell viability: further significantly improved cell viability
[1]; 50 mg/ml added to RPMI-1640(p)
  effect of addition of dextran 40 on cell viability: not further enhanced
[2]; 50 mg/ml added to M199(p)
  effect of addition of dextran 40 on cell viability: further significantly improved cell viability
[2]; 50 mg/ml added to RPMI-1640(p)
  effect of addition of dextran 40 on cell viability: not further enhanced
